Test results as given in patent publication US20090145840A1, “BLOOD CELL SEPARATION MEMBRANE AND BLOOD RETENTION TOOL USING THE SAME” (ARKRAY, Inc., priority 2003, published 2009).

Test system: blood cells
Assay: Hemolysis of blood cells on blood retention tool (plasma colored red with Hb)
Assay type: cell-based
Settings: tools of Example 4 / Comparative Example 4; glycine as 5% solution
Procedure: Blood cell separation was carried out using this tool, and the presence or absence of hemolysis was determined. In the following, unless otherwise stated, the concentration (%) of a hemolysis inhibitor in a hemolysis inhibitor solution is represented by a percentage (unit: (w/v) %) of the weight (unit: g) of the hemolysis inhibitor with respect to the volume (100 ml) of a solvent.
Hemolysis inhibitors were dissolved in solvents (distilled water) beforehand to prepare hemolysis inhibitor solutions shown in Table 1 below. […]
On the glass filter surface of each of the thus-obtained blood retention tools, 100 μl of whole blood (hematocrit: 38%) was dropped to cause the separation of blood cells and plasma and the development of the plasma. Then, after a lapse of 2 minutes, the presence or absence of hemolysis of the blood cells was determined. […]
Blood retention tools (Example 3-1 and 3-2) were produced in the same manner as in Example 1, except that the following development porous membranes (a filter paper and a cellulose acetate membrane) and blood cell separation porous membranes (glass filters) were used and valine was used as the hemolysis inhibitors. […] Using these blood retention tools, blood cell separation was carried out and the presence or absence of hemolysis and the development of blood cells were determined in the same manner as in Examples 1 and 2.

SMILES: NCC(=O)O [Gly, glycine]
- hemolysis: occurrence of hemolysis was observed
